# Data from patent publication US20160257697A1, “THIOPHENE-SUBSTITUTED TETRACYCLIC COMPOUNDS AND METHODS OFUSE THEREOF FOR THE TREATMENT OF VIRAL DISEASES” (priority 2013, published 2016).
# Where two headings read alike, the source gives them in different places.
# Tests used:
# Experiment in all cases: microbe, parasite or virus in culture
# Format in all cases: cell-based, Hepatitis C virus (HCV)
# HCV replicon 1B = conditions: Replicon Assay B
# HCV replicon 1AQ30D = conditions: Replicon Assay B
# HCV replicon 2B = conditions: Replicon Assay A
# How it was run: (§1)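 Replicon cells were seeded at 2000 cells/well with test compound in 0.5% DMSO and 5% FBS, then harvested on day 3. Replicon RNA was measured by multiplex TaqMan real-time RT-PCR, using cyclophilin RNA as the endogenous control and quantified against standard curves of HCV replicon total RNA.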
# HCV replicon 1A = conditions: Replicon Assay A
# How it was run: as §1
# HCV replicon 1AY93H = conditions: Replicon Assay A
# How it was run: as §1
# [1] = Hepatitis C virus, read-out: 1A Q30D IC50 (nM), replicon 1AQ30D
# [2] = Hepatitis C virus, read-out: 2B IC50 (nM), replicon 2B
# [3] = Hepatitis C virus, read-out: 1A Y93H IC50 (nM), replicon 1AY93H
# [4] = read-out: 1A Q30D IC50, HCV replicon 1A Q30D
# [5] = read-out: 2B IC50, HCV replicon 2B
# [6] = read-out: 1A Y93H IC50, HCV replicon 1A Y93H
# [7] = replicon 1AQ30D, read-out: 1A Q30D IC50
# [8] = replicon 1AY93H, read-out: 1A Y93H IC50
# [9] = read-out: 1A Q30D IC50, replicon 1AQ30D
# [10] = read-out: 1A Y93H IC50, replicon 1AY93H
Compound,"IC50 (HCV replicon 1B; Hepatitis C virus, replicon 1B)",IC50 (HCV replicon 1B; replicon 1B),IC50 (HCV replicon 1A; replicon 1A),IC50 (HCV replicon 1AQ30D; [9]),"IC50 (HCV replicon 2B; read-out: 2B IC50, replicon 2B)",IC50 (HCV replicon 1AY93H; [10]),other results
COC(=O)N[C@H](C(=O)N1CCC[C@H]1c1ncc(-c2cc(F)c3c(c2)OC(c2ccc(C4CC4)s2)n2c-3cc3cc(-c4cnc([C@@H]5CCCN5C(=O)[C@@H](NC(=O)OC)C5C[C@@H](C)O[C@@H](C)C5)[nH]4)ccc32)[nH]1)C1C[C@@H](C)O[C@@H](C)C1 (stereo partly shown) [Compound 303],1.3 pM,–,–,–,–,–,"IC50 (HCV replicon 1AQ30D; [1]): 0.008 nM; IC50 (HCV replicon 2B; [2]): 0.003 nM; IC50 (HCV replicon 1A; Hepatitis C virus, replicon 1A): 2.6 pM; IC50 (HCV replicon 1AY93H; [3]): 0.002 nM"
"COC(=O)N[C@H](C(=O)N1CCC[C@H]1c1ncc(-c2cc(C)c3c(c2)OC(c2ccc(C4CC4)s2)n2c-3cc3cc(-c4cnc([C@@H]5C[C@H]6C[C@H]6N5C(=O)[C@@H](NC(=O)OC)C5CCOCC5)[nH]4)ccc32)[nH]1)C(C)C (single isomer, unassigned) [Compound 763]",–,–,–,–,–,–,IC50 (HCV replicon 1B; HCV replicon 1B): 2.5 pM; IC50 (HCV replicon 1AQ30D; [4]): 2.15 nM; IC50 (HCV replicon 2B; [5]): 0.062 nM; IC50 (HCV replicon 1A; HCV replicon 1A): 2.7 pM; IC50 (HCV replicon 1AY93H; [6]): 0.12 nM
"COC(=O)N[C@H](C(=O)N1CCC[C@H]1c1ncc(-c2cc(F)c3c(c2)OC(c2ccc(CC4CC4)s2)n2c-3cc3cc(-c4cnc([C@@H]5CCCN5C(=O)[C@@H](NC(=O)OC)C(C)C)[nH]4)ccc32)[nH]1)C(C)C (single isomer, unassigned) [Compound 54]",–,1.2 pM,2 pM,–,–,–,"IC50 (HCV replicon 1AQ30D; [7]): 0.2 nM; IC50 (HCV replicon 2B; replicon 2B, read-out: 2B IC50): 0.03 nM; IC50 (HCV replicon 1AY93H; [8]): 0.005 nM"
CCc1ccc(C2Oc3cc(-c4cnc([C@@H]5CCCN5C(=O)[C@@H](NC(=O)OC)C(C)C)[nH]4)cc(F)c3-c3cc4cc(-c5cnc([C@@H]6CCCN6C(=O)[C@H](NC(=O)OC)C6CCOC(C)(C)C6)[nH]5)ccc4n32)s1 (stereo partly shown) [Compound 151],2.4 pM,–,–,–,–,–,"IC50 (HCV replicon 1AQ30D; [1]): 0.022 nM; IC50 (HCV replicon 2B; [2]): 0.004 nM; IC50 (HCV replicon 1A; Hepatitis C virus, replicon 1A): 2 pM; IC50 (HCV replicon 1AY93H; [3]): 0.003 nM"
"COC(=O)NC(C(=O)N1CCC[C@H]1c1ncc(-c2ccc3c(c2)cc2n3C(c3cc4ccccc4s3)Oc3cc(-c4cnc([C@@H]5CCCN5C(=O)[C@@H](NC(=O)OC)C5CCOCC5)[nH]4)cc(F)c3-2)[nH]1)C(C)(C)F (single isomer, unassigned) [Compound 182]",2 pM,–,2 pM,0.049 nM,0.005 nM,0.044 nM,–
"COC(=O)NC(C(=O)N1[C@@H]2C[C@@H]2C[C@H]1c1ncc(-c2ccc3c(c2)cc2n3C(c3ccc(CC4CC4)s3)Oc3cc(-c4cnc([C@@H]5CCCN5C(=O)[C@@H](NC(=O)OC)C(C)C)[nH]4)cc(F)c3-2)[nH]1)C1CCOC(C)(C)C1 (single isomer, unassigned) [Compound 417]",–,–,–,–,–,–,IC50 (HCV replicon 1B; HCV replicon 1B): 6 pM; IC50 (HCV replicon 1AQ30D; [4]): 0.0738 nM; IC50 (HCV replicon 2B; [5]): 0.0098 nM; IC50 (HCV replicon 1A; HCV replicon 1A): 3.4 pM; IC50 (HCV replicon 1AY93H; [6]): 0.119 nM
"COC(=O)N[C@H](C(=O)N1CCC[C@H]1c1ncc(-c2cc(F)c3c(c2)OC(c2cc(C4CC4)cs2)n2c-3cc3cc(-c4cnc([C@@H]5CCCN5C(=O)[C@@H](NC(=O)OC)C(C)C)[nH]4)ccc32)[nH]1)C(C)C (single isomer, unassigned) [Compound 24]",–,3.1 pM,2.7 pM,14.9 nM,2.75 nM,1.35 nM,–
"COC(=O)NC(C(=O)N1CCC[C@H]1c1ncc(-c2ccc3c(c2)cc2n3C(c3ccc(C4CC4)s3)Oc3cc(-c4cnc([C@@H]5CCCN5C(=O)[C@@H](NC(=O)OC)C(C)C)[nH]4)cc(F)c3-2)[nH]1)C(C)(C)F (single isomer, unassigned) [Compound 75]",3.1 pM,–,3 pM,–,0.041 nM,0.021 nM,IC50 (HCV replicon 1AQ30D; [1]): 0.27 nM
"COC(=O)NC(C(=O)N1CCC[C@H]1c1ncc(-c2cc(F)c3c(c2)OC(c2ccc(C)s2)n2c-3cc3cc(-c4cnc([C@@H]5CCCN5C(=O)[C@@H](NC(=O)OC)C5CCOCC5)[nH]4)ccc32)[nH]1)C(C)(C)F (single isomer, unassigned) [Compound 105]",–,2.9 pM,1.5 pM,–,–,–,"IC50 (HCV replicon 1AQ30D; [7]): 0.03 nM; IC50 (HCV replicon 2B; replicon 2B, read-out: 2B IC50): 0.012 nM; IC50 (HCV replicon 1AY93H; [8]): 0.01 nM"
"COC(=O)NC(C(=O)N1CCC[C@H]1c1ncc(-c2ccc3c(c2)cc2n3C(c3ccc(CC4CC4)s3)Oc3cc(-c4cnc([C@@H]5CCCN5C(=O)[C@@H](NC(=O)OC)C(C)C)[nH]4)cc(F)c3-2)[nH]1)C1C[C@@H](C)O[C@@H](C)C1 (single isomer, unassigned) [Compound 375]",2.6 pM,–,–,–,–,–,"IC50 (HCV replicon 1AQ30D; [1]): 0.315 nM; IC50 (HCV replicon 2B; [2]): 0.024 nM; IC50 (HCV replicon 1A; Hepatitis C virus, replicon 1A): 1.5 pM; IC50 (HCV replicon 1AY93H; [3]): 0.0269 nM"
"COC(=O)NC(C(=O)N1CCC[C@H]1c1ncc(-c2ccc3c(c2)cc2n3C(c3ccc(C4CC4)s3)Oc3cc(-c4cnc([C@@H]5CCCN5C(=O)[C@@H](NC(=O)OC)C5CCOCC5)[nH]4)cc(F)c3-2)[nH]1)C(C)(C)F (single isomer, unassigned) [Compound 173]",–,2.1 pM,1.7 pM,0.28 nM,0.35 nM,0.098 nM,–
"COC(=O)NC(C(=O)N1CCC[C@H]1c1ncc(-c2cc(F)c3c(c2)OC(c2ccc(C4CC4)s2)n2c-3cc3cc(-c4cnc([C@@H]5CCCN5C(=O)[C@@H](NC(=O)OC)C(C)C)[nH]4)ccc32)[nH]1)C1CCOC(C)(C)C1 (single isomer, unassigned) [Compound 214]",2.2 pM,–,3 pM,0.032 nM,0.005 nM,0.009 nM,–
"COC(=O)N[C@H](C(=O)N1CCC[C@H]1c1ncc(-c2ccc3c(c2)OC(c2cc4ccccc4s2)n2c-3cc3cc(-c4cnc([C@@H]5C[C@@H](F)CN5C(=O)[C@@H](NC(=O)OC)C5CCOCC5)[nH]4)ccc32)[nH]1)C1CCOCC1 (single isomer, unassigned) [Compound 813]",–,–,–,–,–,–,"IC50 (HCV replicon 1B; Hepatitis C virus, HCV replicon 1B): 87 pM; IC50 (HCV replicon 1AQ30D; Hepatitis C virus, read-out: 1A Q30D IC50, HCV replicon 1A Q30D): 1.4 nM; IC50 (HCV replicon 2B; [5]): 0.018 nM; IC50 (HCV replicon 1A; HCV replicon 1A): 43 pM; IC50 (HCV replicon 1AY93H; [6]): 0.038 nM"
"CCc1ccc(C2Oc3cc(-c4cnc([C@@H]5CCCN5C(=O)[C@@H](NC(=O)OC)C(C)C)[nH]4)cc(F)c3-c3cc4cc(-c5cnc([C@@H]6C[C@H]7C[C@H]7N6C(=O)C(NC(=O)OC)C6CCOC(C)(C)C6)[nH]5)ccc4n32)s1 (single isomer, unassigned) [Compound 200]",3 pM,–,2.1 pM,0.036 nM,0.014 nM,0.002 nM,–
"COC(=O)N[C@H](C(=O)N1CCC[C@H]1c1ncc(-c2cc(F)c3c(c2)OC(c2ccc(CC4CC4)s2)n2c-3cc3cc(-c4cnc([C@@H]5CCCN5C(=O)[C@@H](NC(=O)OC)C5CCOCC5)[nH]4)ccc32)[nH]1)C(C)C (single isomer, unassigned) [Compound 357]",–,3 pM,2.1 pM,0.0165 nM,0.0026 nM,0.0041 nM,–
"COC(=O)NC(C(=O)N1CCC[C@H]1c1ncc(-c2ccc3c(c2)cc2n3C(c3ccc(C(F)(F)F)s3)Oc3cc(-c4cnc([C@@H]5CCCN5C(=O)[C@@H](NC(=O)OC)C(C)C)[nH]4)cc(F)c3-2)[nH]1)C1C[C@@H](C)O[C@@H](C)C1 (single isomer, unassigned) [Compound 649]",–,–,–,–,–,–,"IC50 (HCV replicon 1B; HCV replicon 1B): 1.2 pM; IC50 (HCV replicon 1AQ30D; HCV replicon 1A Q30D, read-out: 1A Q30D IC50): 0.41 nM; IC50 (HCV replicon 2B; HCV replicon 2B, read-out: 2B IC50): 0.253 nM; IC50 (HCV replicon 1A; HCV replicon 1A): 2 pM; IC50 (HCV replicon 1AY93H; HCV replicon 1A Y93H, read-out: 1A Y93H IC50): 0.24 nM"
"COC(=O)N[C@H](C(=O)N1CCC[C@H]1c1ncc(-c2ccc3c(c2)OC(c2cc4ccccc4s2)n2c-3cc3cc(-c4cnc([C@@H]5CCCN5C(=O)[C@@H](NC(=O)OC)C5CCOCC5)[nH]4)ccc32)[nH]1)C1CCOCC1 (single isomer, unassigned) [Compound 262]",4 pM,–,–,0.12 nM,0.019 nM,0.052 nM,"IC50 (HCV replicon 1A; Hepatitis C virus, replicon 1A): 4.2 pM"
COC(=O)N[C@H](C(=O)N1CCC[C@H]1c1ncc(-c2cc(F)c3c(c2)OC(c2ccc(-c4ccc(I)cc4)s2)n2c-3cc3cc(-c4cnc([C@@H]5CCCN5C(=O)[C@@H](NC(=O)OC)C(C)C)[nH]4)ccc32)[nH]1)C(C)C (mixture of isomers) [Compound 313],2.9 pM,–,–,–,–,–,"IC50 (HCV replicon 1AQ30D; [1]): 0.19 nM; IC50 (HCV replicon 2B; [2]): 0.1 nM; IC50 (HCV replicon 1A; Hepatitis C virus, replicon 1A): 3.2 pM; IC50 (HCV replicon 1AY93H; [3]): 0.026 nM"
COC(=O)NC(C(=O)N1CCC[C@H]1c1ncc(-c2ccc3c(c2)cc2n3C(c3ccc(C4CC4)s3)Oc3cc(-c4cnc([C@@H]5CCCN5C(=O)[C@@H](NC(=O)OC)C(C)C)[nH]4)cc(F)c3-2)[nH]1)C1CCOC(C)(C)C1 (stereo partly shown) [Compound 219],–,3.2 pM,2.2 pM,0.034 nM,0.005 nM,0.003 nM,–
"COC(=O)NC(C(=O)N1CCC[C@H]1c1ncc(-c2ccc3c(c2)cc2n3C(c3ccc(C4CCCC4)s3)Oc3cc(-c4cnc([C@@H]5CCCN5C(=O)[C@@H](NC(=O)OC)C(C)C)[nH]4)cc(F)c3-2)[nH]1)C1C[C@@H](C)O[C@@H](C)C1 (single isomer, unassigned) [Compound 657]",–,–,–,–,–,–,IC50 (HCV replicon 1B; HCV replicon 1B): 3.7 pM; IC50 (HCV replicon 1AQ30D; [4]): 1.14 nM; IC50 (HCV replicon 2B; [5]): 0.0941 nM; IC50 (HCV replicon 1A; HCV replicon 1A): 2.5 pM; IC50 (HCV replicon 1AY93H; [6]): 0.105 nM
